Results on 24 molecules are retold here after PMC4126670 (ChemMedChem, 2014).

In brackets after ≈: the same amount, converted by molar mass. Entries after “also recorded” stand apart in the source; their conditions may differ. Read-outs that look alike come from different tables or passages of the source. Where only a bound is given, the exact number is not on record here.

Assay [1] deals with M. tuberculosis. The assay can be described thus: Antibacterial growth assay. Type of assay: cell-based, Mycobacterium tuberculosis.
The target in assay [2] is T1, wild-type InhA (Mycobacterium tuberculosis, UniProt P9WGR1). The assay can be described thus: InhA enzyme inhibition, steady state kinetics. Format: biochemical.
T1 sequence (P9WGR1 whole entry, looked up): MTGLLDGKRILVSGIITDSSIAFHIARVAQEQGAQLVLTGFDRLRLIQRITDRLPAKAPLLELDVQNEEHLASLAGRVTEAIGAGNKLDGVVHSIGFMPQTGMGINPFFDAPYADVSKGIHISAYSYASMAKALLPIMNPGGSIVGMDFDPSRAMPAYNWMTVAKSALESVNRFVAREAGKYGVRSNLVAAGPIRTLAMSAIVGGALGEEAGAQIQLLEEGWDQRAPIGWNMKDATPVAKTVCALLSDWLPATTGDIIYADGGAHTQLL
Assay [3] addresses T1, wild-type InhA. The assay can be described thus: InhA progress curve assays. Format: biochemical. The following applies: for Slow-onset: Yes/No.
The subject of assay [4] is M. tuberculosis Erdman. The assay can be described thus: Rapid M. tuberculosis animal model of efficacy. Format: in vivo, Mycobacterium tuberculosis. The following applies: for reduction of bacterial counts in the spleen: GKO C57BL/6 mice, IP, 10 days of treatment, compared to untreated controls; for efficacy in rapid murine model of TB infection: mice, IP delivery, bacterial CFUs in spleen.

Assay [5] has as its target T1, wild-type InhA. The following applies: cited from earlier work.
Assay [6] relates to M. tuberculosis Erdman. The following applies: mice, bacterial load in lung or spleen; cited from earlier work.
For assay [7], the system named is M. tuberculosis. The following applies: cited from earlier work.
The mark [8] stands for this setting: Table 1, slow-onset (time-dependent) inhibition of InhA.
[9] abbreviates: Table 1, lowest concentration inhibiting visible growth.

By MIC is commonly meant the least concentration at which growth counts as inhibited. Read a low MIC as inhibition by little substance. As to `CCCCCCc1ccc(Oc2c(C)cccc2N)c(O)c1` [PT110, 2-(2-Amino-6-methylphenoxy)-5-hexylphenol], the MIC was > 100 µg/mL against M. tuberculosis [1] (Mycobacterium tuberculosis) and “total loss” with M. tuberculosis [1] (Table 2).

For orientation: IC50 means the concentration needed to halve the response being measured. Read a high IC50 as weaker potency. Regarding `CCCCCCc1ccc(Oc2ccccc2C(F)(F)F)c(O)c1` [PT095, 5-Hexyl-2-(2-(trifluoromethyl)phenoxy)phenol], 29.7 ± 1.2 nM corresponded to half-maximal inhibition against wild-type InhA [2] (IC50). Moreover, the Slow-onset result at wild-type InhA [3] (setting [8]) was “No”. This molecule also displayed an MIC in the assay with M. tuberculosis [1] (Mycobacterium tuberculosis) of 50 µg/mL (≈ 148 µM).

At wild-type InhA [2], `CCCCCCc1ccc(Oc2c(F)cccc2Cl)c(O)c1` [PT133, 2-(2-Chloro-6-fluorophenoxy)-5-hexylphenol] had an IC50 of 79.7 ± 24.4 nM. For the same molecule, the MIC with M. tuberculosis [1] (Mycobacterium tuberculosis) is 25 µg/mL (≈ 77.4 µM).

As a reminder, the Ki is the equilibrium dissociation constant of an inhibitor or competing ligand from its target. Take `CCCCCCc1ccc(Oc2ccccc2O)c(O)c1` [PT114, 5-Hexyl-2-(2-hydroxyphenoxy)phenol]: the IC50 at wild-type InhA [2] was found to be 48 ± 3 nM. In addition, the Ki on wild-type InhA [3] amounted to 15.9 ± 3.7 nM. Further, the Slow-onset result on wild-type InhA [3] (setting [8]) was “No”. Besides, it took 12.5 µg/mL (≈ 43.6 µM) to inhibit growth in the assay with M. tuberculosis [1] (Mycobacterium tuberculosis) (MIC).

For `CCCCCCc1ccc(Oc2ccc([N+](=O)[O-])cc2C)c(O)c1` [PT107, 5-Hexyl-2-(2-methyl-4-nitrophenoxy)phenol], the IC50 at wild-type InhA [2] was 50 ± 5 nM. The same molecule yielded a Ki on wild-type InhA [3] of 0.13 ± 0.03 nM. In the assay on M. tuberculosis [1] (Mycobacterium tuberculosis), the minimum inhibitory concentration (MIC) was determined as 6.25 µg/mL (≈ 19 µM).

For the molecule `CCCCCCc1ccc(Oc2ccccc2F)c(O)c1` [PT113, 2-(2-Fluorophenoxy)-5-hexylphenol], 12.1 ± 4.8 nM corresponded to half-maximal inhibition at wild-type InhA [2] (IC50). On wild-type InhA [3], this molecule returned a Ki of 0.09 ± 0.02 nM and a residence time of 9 ± 3 min. In addition, the Slow-onset entry on wild-type InhA [3] (setting [8]) was “Yes”. Further, in the assay with M. tuberculosis [1] (Mycobacterium tuberculosis), the MIC stood at 1.56 µg/mL (≈ 5.41 µM).

At wild-type InhA [2], `CCCCCCc1ccc(Oc2cnccc2C#N)c(O)c1` [PT115, 3-(4-Hexyl-2-hydroxyphenoxy)isonicotinonitrile] returned an IC50 of 891 ± 106 nM. The residence time on wild-type InhA [3] is > 20 min. Besides, the Slow-onset result at wild-type InhA [3] (Table 3) was “Yes”. In the assay on M. tuberculosis [1] (Mycobacterium tuberculosis), the MIC was determined as 12.5 µg/mL (≈ 42.2 µM).

On wild-type InhA [2], `CCCCCCc1ccc(Oc2c(F)cccc2C#N)c(O)c1` [PT111, 3-Fluoro-2-(4-hexyl-2-hydroxyphenoxy) benzonitrile] registered an IC50 of 100 ± 9 nM. For the same molecule, in the assay with M. tuberculosis [1] (Mycobacterium tuberculosis), the MIC is 25 µg/mL (≈ 79.8 µM).

On to `CCCCCCc1ccc(Oc2cnccc2C(=O)O)c(O)c1` [PT116, 3-(4-Hexyl-2-hydroxyphenoxy)isonicotinic acid], for which the IC50 at wild-type InhA [2] was > 12000 nM. The lowest concentration to inhibit growth in the assay with M. tuberculosis [1] (Mycobacterium tuberculosis) (MIC) was 25 µg/mL (≈ 79.3 µM).

With `CCCCCCc1ccc(Oc2cccnc2C#N)c(O)c1` [PT164, 3-(4-Hexyl-2-hydroxyphenoxy)picolinonitrile], at wild-type InhA [2], inhibition was half-maximal at 308 ± 4.2 nM (IC50). The Slow-onset entry on wild-type InhA [3] (Table 3) was “slow-onset inhibition and Yes”. Also, the MIC in the assay with M. tuberculosis [1] (Mycobacterium tuberculosis) was < 0.39 µg/mL.

`CCCCCCc1ccc(Oc2ccccc2Cl)c(O)c1` [PT091, 2-(2-Chlorophenoxy)-5-hexylphenol]: the residence time at wild-type InhA [3] was found to be 21 ± 3 min. The Slow-onset entry at wild-type InhA [3] (setting [8]) is “slow onset and Yes”. The MIC against M. tuberculosis [1] (Mycobacterium tuberculosis) was found to be 1.56 µg/mL (≈ 5.12 µM). In the assay on M. tuberculosis Erdman [4], the “reduction of bacterial counts in the spleen” value amounted to 0.69 ± 0.22 log10 and the “efficacy in rapid murine model of TB infection” value (shortened to “efficacy in rapid murine model”) is recorded as “demonstrated efficacy”.

Turning to `CCCCCCc1ccc(Oc2ccccc2C)c(O)c1` [PT070], the IC50 at wild-type InhA [2] (Table 1, enzyme concentration 100 nM) is 50.7 ± 4 nM. On wild-type InhA [3] (Table 1), the affinity, expressed as Ki, was 0.044 ± 0.005 nM and the “residence time” value stood at 24 ± 2 min. In addition, on wild-type InhA [3] (setting [8]), the Slow-onset result is “slow onset and Yes”. The MIC in the assay on M. tuberculosis [1] (setting [9]) was determined as 3.125 µg/mL (≈ 11 µM). The molecule further returned an MIC against M. tuberculosis [1] (Table 2) of 3.125 µg/mL (≈ 11 µM). Also, in the assay on M. tuberculosis Erdman [4], the “reduction of bacterial counts in the spleen” value was 0.57 ± 0.26 log10 and the “efficacy in rapid murine model” value is given as “demonstrated efficacy”. Moreover, the “residence time on InhA” value at wild-type InhA [5] is on record as 24 min.

In turn, `CCCCCCc1ccc(Oc2c(Cl)cccc2Cl)c(O)c1` [PT109, 2-(2,6-Dichlorophenoxy)-5-hexylphenol] gave an IC50 on wild-type InhA [2] of 86 ± 6 nM. In the assay with M. tuberculosis [1] (Mycobacterium tuberculosis), this molecule came in with an MIC of 25 µg/mL (≈ 73.7 µM).

Turning to `CCCCCCc1ccc(Oc2cnccc2N)c(O)c1` [PT112, 2-((4-Aminopyridin-3-yl)oxy)-5-hexylphenol], at wild-type InhA [2], the IC50 was 69000 ± 700 nM. For the same molecule, at wild-type InhA [2] (PT013 vs. PT113, PT112 vs. PT161), the “fold increase in IC50 value, amino group compared to fluorine group” value was 1700 fold. The “fold difference in IC50 value between PT134 and PT112” value at wild-type InhA [2] (PT134 (2'- and 4'-N) vs 4'-N analogue PT112) was determined as 300 fold. The molecule further yielded an MIC against M. tuberculosis [1] (Mycobacterium tuberculosis) of 50 µg/mL (≈ 175 µM).

Take `CCCCCCc1ccc(Oc2ccccc2[N+](=O)[O-])c(O)c1` [PT010]: in the assay with M. tuberculosis [1] (setting [9]), the MIC amounted to 12.50 µg/mL (≈ 39.6 µM).

With `CCCCCCc1ccc(Oc2ccccc2I)c(O)c1` [PT096, 5-Hexyl-2-(2-iodophenoxy)phenol], at wild-type InhA [2], inhibition was half-maximal at 44.6 ± 7.5 nM (IC50). Moreover, the affinity on wild-type InhA [3], expressed as Ki, was 3.72 ± 5.13 nM. Besides, the Slow-onset result at wild-type InhA [3] (setting [8]) is “No”. The molecule further had an MIC against M. tuberculosis [1] (Mycobacterium tuberculosis) of 25 µg/mL (≈ 63.1 µM).

`CCCCCCc1ccc(Oc2ccccn2)c(O)c1` [PT077]: the MIC against M. tuberculosis [1] (Table 3) was 3.13 µg/mL (≈ 11.5 µM).

At wild-type InhA [2], `CCCCCCc1ccc(Oc2cncnc2N)c(O)c1` [PT134, 2-((4-Aminopyrimidin-5-yl)oxy)-5-hexylphenol] yielded an IC50 of 239 ± 46.8 nM. Besides, the MIC against M. tuberculosis [1] (Mycobacterium tuberculosis) came to 3.12 µg/mL (≈ 10.9 µM).

For `CCCCCCc1ccc(Oc2ccccc2)c(O)c1` [PT004], the MIC was determined as 2.1 µg/mL (≈ 7.77 µM) in the assay with M. tuberculosis [1] (setting [9]) and 2.1 ± 0.9 µg/mL (≈ 7.77 µM) with M. tuberculosis [1] (Table 2). In addition, the “efficacy in rapid murine model” value in the assay with M. tuberculosis Erdman [6] was “failed to observe a significant reduction in bacterial load; also recorded: did not show efficacy; also recorded: did not significantly reduce the bacterial load; also recorded: does not demonstrate efficacy; also recorded: lack of efficacy”. Besides, the “bacterial load in rapid macrophage model of TB infection” value in the assay on M. tuberculosis [7] was “had efficacy in a macrophage TB assay; also recorded: reduced the bacterial load”.

Turning to `CCCCCCc1ccc(Oc2ccccc2N)c(O)c1` [PT013], the MIC against M. tuberculosis [1] (setting [9]) is 3.13 µg/mL (≈ 11 µM).

`CCCCCCc1ccc(Oc2cccnc2F)c(O)c1` [PT161, 2-((2-Fluoropyridin-3-yl)oxy)-5-hexylphenol] had an IC50 against wild-type InhA [2] of 40 ± 20 nM. Besides, at wild-type InhA [3] (Table 3), the Slow-onset result was “slow-onset inhibition and Yes”. Moreover, the MIC in the assay on M. tuberculosis [1] (Mycobacterium tuberculosis) was found to be 0.312 µg/mL (≈ 1.08 µM).

At wild-type InhA [3], `CCCCCCc1ccc(Oc2ccccc2C#N)c(O)c1` [PT119, 2-(4-Hexyl-2-hydroxyphenoxy)benzonitrile] came in with a residence time of 80 ± 12 min. The Slow-onset entry on wild-type InhA [3] (setting [8]) is listed as “Yes”. Also, the “fold reduction of binding affinity compared to PT070” value on wild-type InhA [3] (ratio of Ki) is recorded as ~ 50 fold. In the assay on M. tuberculosis [1] (Mycobacterium tuberculosis), this molecule yielded an MIC of 2.5 µg/mL (≈ 8.46 µM).

For the molecule `CCCCCCc1ccc(Oc2ccccc2Br)c(O)c1` [PT092, 2-(2-Bromophenoxy)-5-hexylphenol], the residence time at wild-type InhA [3] came to 30 ± 3 min. In addition, the Slow-onset entry on wild-type InhA [3] (setting [8]) is “Yes”. This molecule displayed an MIC in the assay with M. tuberculosis [1] (Mycobacterium tuberculosis) of 3.12 µg/mL (≈ 8.95 µM).

Molecule `CCCCCCc1ccc(Oc2c(C)cccc2C)c(O)c1` [PT108, 2-(2,6-Dimethylphenoxy)-5-hexylphenol] returned an IC50 at wild-type InhA [2] of 1570 ± 200 nM. Inhibition of growth in the assay with M. tuberculosis [1] (Mycobacterium tuberculosis) (MIC) required 100 µg/mL (≈ 335 µM).
